Article PMC10845951, “Characterization of a selective, iron-chelating antifungal compound that disrupts fungal metabolism and synergizes with fluconazole” (Microbiology Spectrum, 2024)

Tests used:
HEK-293 cells = test: CellTiter-Glo assay for human cells; assay type: cell-based; conditions: HEK293, HEK-293, 24 h
Description: (§1) HEK-293 and HS-5 cells were stored in liquid nitrogen, in freezing medium [50% Dulbecco’s Modified Eagle’s Medium (DMEM), 40% fetal bovine serum, and 10% DMSO] for long-term storage. For experimental use, the cells were thawed and then cultured using DMEM containing 10% […] and 1% penicillin/streptomycin.
(§2) The 1:1 serial dilutions of the compounds were performed in 96-well plates to obtain a final concentration range (three technical replicates each) equivalent to 0.781, 1.562, 3.125, 6.25, 12.5, 25, 50, and 100 µM. […] The plates were placed inside plastic bags to prevent evaporation and incubated at 37°C, 5% CO2 for 24 h. One hundred microliters of CellTiter-Glo 2.0 (Promega, G9243) was added to each well and then measured for luminescence using a Synergy 2 Gen 5 plate reader from BioTek.

HS-5 cells = test: CellTiter-Glo assay for human cells; assay type: cell-based; conditions: HS5, HS-5, 24 h
Description: as §1, §2

C. glabrata WT = test: Cell proliferation with metal supplementation; assay type: cell-based, Candida glabrata
Description: One-millimolar stocks of metal solutions (CaCl2, CuCl2, FeCl2, FeCl3, MgCl2, MnCl2, and ZnCl2) were prepared in mQH2O and autoclaved. […] Fifty microliters of either mQH2O or metal solution were added to each well, including 50 µL of refreshed C. glabrata WT with an adjusted OD600 of 0.15. The 96-well plates were measured at OD600 and incubated in plastic bags to prevent evaporation for 24 h, after which the final OD600 was measured.

[1] = system: Aft1/2 target genes in aft1Δ S. cerevisiae; test: RT-qPCR of Aft1/2 target genes in aft1Δ strain; assay type: cell-based, Saccharomyces cerevisiae; conditions: 10 µM, 24 h
Description: WT and […] cells were grown overnight in complete supplement mixture (CSM). […] After 24 h of incubation, cells were collected, and total RNA purification, reverse transcription, and RT-qPCR were performed as previously described with minor modifications ([59], [66]). Briefly, total RNA was purified using the RNeasy Mini Kit (74104, Qiagen), and reverse transcription was performed using the QuantiTect Reverse Transcription Kit (205311, Qiagen). RT-qPCR experiments were done using the HOT FIREPol EvaGreen qPCR Mix (08-36-00001-10, Solis Biodyne) and a LightCycler 96 System (Roche). Expression of the 5S gene was used as a control. The primers used in RT-qPCR experiments are as follows: […]

C. glabrata cells [2] = test: ROS assay (H2DCF-DA fluorescence); assay type: cell-based, Candida glabrata; conditions: 30 µM
[3] = system: C. glabrata WT (10028) cells; test: XTT metabolic assay; assay type: cell-based, Candida glabrata; conditions: 0.625, 2.5, 10 µM; 6 and 24 h
[4] = system: C. glabrata WT (JEY10028) cells; test: Mitochondrial staining with MitoTracker; assay type: cell-based, Candida glabrata; conditions: 6 h and 24 h, vs DMSO
C. glabrata cells [5] = test: Dead cell staining with propidium iodide; assay type: cell-based, Candida glabrata; conditions: 24 h
Description: Propidium iodide (Sigma) was freshly prepared to a final concentration of 5 µg/mL in PBS.
The samples were incubated at 30°C and harvested to a total number of cells equivalent to a 5-mL culture with an OD600 of 0.3 at 6 and 24 h. As a positive control for cell death, cells treated with DMSO were incubated at 75°C for 1 h. The cells were centrifuged at 7,000 rpm for 5 minutes to remove the supernatant, followed by resuspension of the cell pellets in 100-µL 5 µg/mL propidium iodide for 10 minutes in the dark at room temperature. The supernatant was removed by centrifugation at 7,000 rpm for 5 minutes, followed by washing with 500-µL PBS and a final centrifugation at 7,000 rpm for 5 minutes. Finally, the cells were resuspended in 150-µL PBS and measured for fluorescence intensity using a microplate reader.
The autofluorescence of the unstained treated samples was subtracted from raw fluorescence intensities of the stained samples and then normalized to DMSO. Normalized values were log transformed and then analyzed using one-way ANOVA and Tukey’s HSD post hoc test.

[6] = system: G. mellonella larvae infected with C. glabrata 2001HT; test: Survival assay in infected Galleria mellonella; assay type: in vivo; conditions: wild-type C. glabrata (2001HT), 30 µM, vs DMSO
Description: (§3) Galleria mellonella was obtained from R.J. Mous Livebait (The Netherlands). The larvae were selected by weight (0.2–0.3 grams) and by the absence of dark spots on the cuticle. The larvae were maintained at room temperature, and the day before the experiment, they were transferred to the temperature at which the experiment was going to be performed (30°C). The number of dead caterpillars was scored every day. […] G. mellonella were infected with either C. glabrata 2001HT or FL-256; C. glabrata cells were grown in liquid media (Oxoid) overnight at 30°C with moderate shaking (150 rpm). Groups of 20 larvae per strain were infected in each experiment. The pro-leg area was cleaned with 70% ethanol using a swab. The larvae were inoculated with 10 µL of C. glabrata suspension at 2.5 × 10^6 cells/mL in PBS containing 50 µg/mL of ampicillin by injection, using a Hamilton syringe with 26-gauge needle in the last left pro-leg.

[7] = system: G. mellonella larvae infected with C. glabrata FL-256; test: Survival assay in infected Galleria mellonella; assay type: in vivo; conditions: azole-resistant C. glabrata (FL-256), 30 µM, vs DMSO
Description: as §3

C. albicans WT = conditions: Candida albicans, 24 h, read-out: C. albicans WT Inhibition (%)
HEK-293 and HS-5 cells = test: Incucyte live-cell imaging of treated human cells (morphology, compound precipitation)

With `c1ccc(-c2cccc(-c3ccccn3)n2)nc1` [2,2′:6′,2′′-terpyridine] the EC50 (HEK-293 cells) was 37.1 ± 6.94 µM, the EC50 (HS-5 cells) was 28.7 ± 8.32 µM and the “change of EC50 on metal addition” value (C. glabrata WT; +5 µM Cu^2+ (CuCl2), 24 h) was “significantly increased”. The “change of EC50 on metal addition” value (C. glabrata WT; +5 µM FeCl2, 24 h) was “significantly increased”, the “change of EC50 on metal addition” value (C. glabrata WT; +5 µM Zn^2+ (ZnCl2), 24 h) was “significantly increased” and the “transcriptional responses after deletion of AFT1” value [1] was “attenuated the transcriptional responses”. For the same compound, the ROS formation (C. glabrata cells [2]; 3 or 6 h) was “no ROS formation could be detected”, the ROS formation (C. glabrata cells [2]; 24 h) was “significant ROS production” and the “reduction of XTT (mitochondrial activity)” value [3] was “significantly inhibited the reduction of XTT”. The “MitoTracker Red CMXRos fluorescence” value [4] was “lower fluorescence intensities”, the “number of propidium iodide-positive cells” value (C. glabrata cells [5]; 10 µM, vs DMSO) was “apparent reduction in the number of propidium iodide-positive cells” and the “mode of antifungal effect” value (C. glabrata cells [5]) was “cytostatic effect”. The “propidium iodide fluorescence (cell death)” value (C. glabrata cells [5]; increasing concentrations) was “no significant difference in fluorescence intensity compared to DMSO”, the “survival of infected larvae” value [6] was “significantly improved the survival” and the “survival of infected larvae” value [7] was “significantly improved the survival”. The inhibition at 1 µM (C. albicans WT) was -6.82%, the inhibition at 2 µM (C. albicans WT) was -0.43% and the inhibition at 3 µM (C. albicans WT) was 1.52%. For the same compound, the inhibition at 4 µM (C. albicans WT) was 7.25%, the inhibition at 5 µM (C. albicans WT) was 9.76% and the inhibition at 10 µM (C. albicans WT) was 79.1%. The cell morphology (HEK-293 and HS-5 cells; 100 µM) was “morphological changes” and the “compound precipitation / solubility” value (HEK-293 and HS-5 cells; cell culture medium, up to 100 µM) was “better solubility”.
